Test results as given in patent US20050065212A1, “Use of at least one 10-hydroxy-2-decenoic acid derivative in compositions for treating the cuteous signs of aging” (priority 2001, published 2005).

How the values were obtained:
[1] = test system: interstitial collagenase (type-1 metalloprotease, MMP-1) production by A2058 cells; experiment: Production of interstitial collagenase in A2058 cell culture (ELISA, Biotrack human MMP1); format: cell-based
Protocol: (§1) The effect of 2-dimethylaminoethyl 10-hydroxy-2-decenoate on the production of interstitial collagenase was evaluated in a culture model of A2058 cells (derived from human melanomas: Templeton N. S. et al. 1990; Cancer Res., 50:5431-5431) and in a culture model of HT1080 cells derived from a human fibrosarcoma (American type Culture Collection: reference CCL 121).
(§2) The A2058 cells constitutively express and secrete type-1 metalloprotease. The HT1080 cells express little type-1 metalloprotease in the basal state, but this expression is increased in the presence of TPA.
(§3) The cells are incubated in an MEM medium without phenol red, containing amino acids at a concentration of 2 mM, sodium pyruvate at a concentration of 1 mM and calf serum containing 10% […]. They are then cultured at a density of 20 000 cells per well in the 24 wells of a multiwell plate.
(§4) Twenty-four hours after culturing, the cells are placed in contact with 2-dimethylaminoethyl 10-hydroxy-2-decenoate at a concentration of 25 μg/ml. The production of the interstitial collagenase is evaluated 96 hours later in the culture medium. This is performed using an ELISA kit (Biotrack human MMP1; Amersham).
(§5) The results are expressed as a percentage of reduction of the production of interstitial collagenase relative to the control, i.e. relative to culturing performed under the same conditions in the absence of derivative.

[2] = test system: interstitial collagenase (type-1 metalloprotease, MMP-1) production by HT1080 cells; experiment: Production of interstitial collagenase in HT1080 cell culture (ELISA, Biotrack human MMP1); format: cell-based; conditions: for percentage of reduction of the production of interstitial collagenase relative to the control: compound 25 μg/ml, culture medium 96 hours after contact
Protocol: as §1, §2, §3, §4, §5

CN(C)CCOC(=O)/C=C/CCCCCCCO [2-dimethylaminoethyl 10-hydroxy-2-decenoate]
percentage of reduction of the production of interstitial collagenase relative to the control ([1]; A2058 cells, compound 25 μg/ml, culture medium 96 hours after contact): 70%
effect on production of interstitial collagenase (in words) ([1]; A 2058 cells, dose of 25 μg/ml): reduces the production of interstitial collagenase
percentage of reduction of the production of interstitial collagenase relative to the control ([2]; HT1080 with TPA): 50%
percentage of reduction of the production of interstitial collagenase relative to the control ([2]; HT1080 without TPA): 55%
effect on production of interstitial collagenase (in words) ([2]; HT61080 cells as printed, dose of 25 μg/ml): reduces the production of interstitial collagenase
